Measured values taken from patent publication US7935853B2, “Micronized composition of a 2,4-disubstituted phenol derivative” (priority 2008, dated 2011).
Several values for one entry are separate records, joined by “and”; a condition that tells them apart may be missing. Equal entries are not always repeated.

Target: T1, 5-lipoxygenase (Rattus norvegicus, UniProt P12527)
T1 construct: leukotriene B4 formation (LTB4) by 5-lipoxygenase ex-vivo in rat whole blood stimulated with calcium ionophore; from tissue
T1 sequence (P12527 1-673): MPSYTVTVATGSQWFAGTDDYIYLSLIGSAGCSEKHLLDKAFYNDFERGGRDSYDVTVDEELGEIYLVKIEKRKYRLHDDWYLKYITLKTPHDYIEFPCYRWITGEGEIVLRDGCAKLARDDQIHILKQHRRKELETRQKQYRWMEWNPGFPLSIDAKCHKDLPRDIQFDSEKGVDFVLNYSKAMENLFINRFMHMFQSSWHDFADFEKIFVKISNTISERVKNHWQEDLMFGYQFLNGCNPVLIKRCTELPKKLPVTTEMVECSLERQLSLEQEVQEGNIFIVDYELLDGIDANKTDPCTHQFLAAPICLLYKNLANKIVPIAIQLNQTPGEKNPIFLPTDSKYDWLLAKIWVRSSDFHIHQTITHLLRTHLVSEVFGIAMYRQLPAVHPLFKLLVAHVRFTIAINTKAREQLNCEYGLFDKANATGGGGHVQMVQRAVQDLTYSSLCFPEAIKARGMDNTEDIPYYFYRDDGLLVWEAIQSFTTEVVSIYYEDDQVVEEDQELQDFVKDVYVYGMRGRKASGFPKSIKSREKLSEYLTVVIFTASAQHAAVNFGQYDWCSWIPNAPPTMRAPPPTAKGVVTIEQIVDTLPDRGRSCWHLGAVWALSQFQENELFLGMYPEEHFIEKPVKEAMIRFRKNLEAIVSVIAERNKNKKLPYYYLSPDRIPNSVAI
Test: Inhibitory activity over 5-lipoxygenase ex-vivo in rat whole blood (LTB4 by EIA)
Details: for LTB4 (ng/ml), group mean / LTB4 (ng/ml), individual samples: blood 1 h after last dose, calcium ionophore 30 μM; for LTB4 (ng/ml), individual samples / LTB4 % inhib., individual samples: individual rats
Procedure: In the example shown 3 groups of animals (rats) were used, with 6 rats in each group. The groups were;
1 group 1: control (vehicle)
2 group 2: treated with micronized test substance (10 mg/Kg)
3 group 3: treated with non-micronized test substance (10 mg/Kg)
The distribution of animals to each group was done in a randomized manner at the start of the study.
The test and reference substances were administered orally as a suspension in 0.25% carboximethylcellulose in a dosing volume of 4 ml/kg via an oral cannula.
Test substance administration was carried out once every 24 hours (09 h 00 min) for 5 consecutive days. On the 5th day a blood sample was obtained from each animal (1 mL) 1 hour after administration of the test and reference substances. Blood samples were obtained from the posterior (abdominal) vena cava in sterile syringes containing sodium citrate (4%) as an anticoagulant. Each blood sample was divided into two 0.5 ml aliquots (duplicates). A 1 hour time lapse after test substance administration was used before obtaining the blood samples as it was determined in preliminary studies that this is when there is a greater inhibition of leukotriene synthesis by the test substance.
Immediately after collection of the blood samples, the duplicated aliquots were incubated at 37° C. for 10 min. After this time, the aliquots were stimulated with calcium ionophore (30 μM, final concentration) for 30 min at 37° C. Once the incubation period was over the aliquots were centrifuged at 12.000 g for 2 minutes. The resulting plasma was separated and stored at −20° C. for its posterior analysis. In these samples the concentration of leukotriene B4 was determined by enzyme immunoassay (kit EIA; Amersham).

[1] = 10 mg/Kg oral once daily 5 days, 10 mg/kg
[2] = 10 mg/Kg oral once daily 5 days, vs control, 10 mg/kg

| SMILES | degree of LTB4 inhibition compared with the other form (10 mg/kg, 5 days oral) | inhibition of leukotriene B4 formation by 5-lipoxygenase ex-vivo (in words) (10 mg/kg, 5 days oral, P<0.05 ANOVA+Dunnett's test) | LTB4 (ng/ml), group mean (group mean, 6 rats, 10 mg/Kg oral once daily 5 days, 10 mg/kg) [ng/mL] | LTB4 (ng/ml), individual samples [1] | LTB4 % inhib., individual samples [2] | inhibition at 10 mg/kg (rat, po, group mean, 6 rats, 10 mg/Kg oral once daily 5 days, vs control, read-out: LTB4 % inhib., group mean) [%] | LTB4 (ng/ml), group mean (group mean, 6 rats, 10 mg/Kg oral once daily 5 days, listed as S. Ref., 10 mg/kg) [ng/mL] | LTB4 % inhib., group mean (group mean, 6 rats, 10 mg/Kg oral once daily 5 days, vs control, listed as S. Ref., 10 mg/kg) [%] |
| --- | --- | --- | --- | --- | --- | --- | --- | --- |
| Oc1c(I)cc(I)cc1I [Micronized, 2,4,6-triiodophenol] | superior to that obtained with the non-micronized product | inhibits, in a statistically significant manner | 5.492 | 6.549 ng/mL and 5.032 ng/mL and 4.583 ng/mL and 6.118 ng/mL and 4.602 ng/mL and 6.067 ng/mL | 20.176% and 38.665% and 44.140% and 25.423% and 43.902% and 26.054% | 33.1 | – | – |
| Oc1c(I)cc(I)cc1I [Non-Micronized, 2,4,6-triiodophenol] | – | – | – | 6.862 ng/ml and 4.355 ng/ml (2×) and 4.905 ng/ml and 8.818 ng/ml and 9.682 ng/ml | 16.356% and 46.917% and 40.210% and −7.480% and −18.013% | – | 6.496 | 20.818 |
